Reference: patent US20230098332A1, “HETEROCYCLIC DERIVATIVES AS TRMP8 ANTAGONISTS” (Givaudan SA, priority 2020, published 2023)
Where a name gives a salt, the structure may show the parent alone.

Biological target: T1, hTRPM8 (Homo sapiens, UniProt Q7Z2W7)
T1 construct: expressed in transfected cells
Assay: Assay on TRPM8 modulators: calcium imaging (Fluo-4, Flexstation) in HEK293 cell line stably expressing hTRPM8
Type: cell-based
Conditions: TRPM8 agonist activity, calcium influx, HEK293 stably expressing hTRPM8, sigmoidal dose-response fit
Procedure: A HEK293 cell line stably expressing hTRPM8 was generated according to Klein et al., (Chem. Senses 36: 649-658, 2011) and receptor activation was monitored by calcium imaging in a Flexstation. For Ca-imaging assays of TRPM8 channel activation, cells were seeded on day 0 at a density of 12000 cells per well in Dulbecco's modified Eagle medium (DMEM) containing 9% foetal bovine serum in black, clear bottom 96-well plates that had been coated with 0.001% polyethyleneimine (molecular weight=60 000, Acros Organics). On day 2, agonists were evaluated via calcium imaging using Fluo-4. Briefly, growth medium was discarded, and the cells were incubated in the dark for 1 h at 37° C. in 50 μL loading buffer consisting of 2.7 μM Fluo-4 AM (Invitrogen) and […] probenecid (Sigma-Aldrich) in DMEM (without serum). After incubation, the plates were washed five times with 100 μL of assay buffer (in mM: 130 NaCl, 5 KCl, 10 HEPES, 2 CaCl2, and 10 glucose, pH7.4.) and further incubated in the dark at room temperature for 30 min. The cells were then washed five times with 100 μL assay buffer and then calcium influx to serial dilutions of inventive compounds were measured in a Flexstation 3 (Molecular Devices). Receptor activation was initiated following addition of 20 μl of a 10-fold concentrated ligand stock solution, which is also prepared in assay buffer. Fluorescence was continuously monitored for 15 seconds prior to ligand addition and for 105 seconds after ligand addition, for a total of 120 seconds. Maximal receptor activation in relation to solvent control and relative to 31.6 μM menthol is determined. Data from serial dilutions were processed with a KNIME workflow to fit a sigmoidal dose-response curve and to extrapolate EC50 values.

T1 sequence (Q7Z2W7 whole entry): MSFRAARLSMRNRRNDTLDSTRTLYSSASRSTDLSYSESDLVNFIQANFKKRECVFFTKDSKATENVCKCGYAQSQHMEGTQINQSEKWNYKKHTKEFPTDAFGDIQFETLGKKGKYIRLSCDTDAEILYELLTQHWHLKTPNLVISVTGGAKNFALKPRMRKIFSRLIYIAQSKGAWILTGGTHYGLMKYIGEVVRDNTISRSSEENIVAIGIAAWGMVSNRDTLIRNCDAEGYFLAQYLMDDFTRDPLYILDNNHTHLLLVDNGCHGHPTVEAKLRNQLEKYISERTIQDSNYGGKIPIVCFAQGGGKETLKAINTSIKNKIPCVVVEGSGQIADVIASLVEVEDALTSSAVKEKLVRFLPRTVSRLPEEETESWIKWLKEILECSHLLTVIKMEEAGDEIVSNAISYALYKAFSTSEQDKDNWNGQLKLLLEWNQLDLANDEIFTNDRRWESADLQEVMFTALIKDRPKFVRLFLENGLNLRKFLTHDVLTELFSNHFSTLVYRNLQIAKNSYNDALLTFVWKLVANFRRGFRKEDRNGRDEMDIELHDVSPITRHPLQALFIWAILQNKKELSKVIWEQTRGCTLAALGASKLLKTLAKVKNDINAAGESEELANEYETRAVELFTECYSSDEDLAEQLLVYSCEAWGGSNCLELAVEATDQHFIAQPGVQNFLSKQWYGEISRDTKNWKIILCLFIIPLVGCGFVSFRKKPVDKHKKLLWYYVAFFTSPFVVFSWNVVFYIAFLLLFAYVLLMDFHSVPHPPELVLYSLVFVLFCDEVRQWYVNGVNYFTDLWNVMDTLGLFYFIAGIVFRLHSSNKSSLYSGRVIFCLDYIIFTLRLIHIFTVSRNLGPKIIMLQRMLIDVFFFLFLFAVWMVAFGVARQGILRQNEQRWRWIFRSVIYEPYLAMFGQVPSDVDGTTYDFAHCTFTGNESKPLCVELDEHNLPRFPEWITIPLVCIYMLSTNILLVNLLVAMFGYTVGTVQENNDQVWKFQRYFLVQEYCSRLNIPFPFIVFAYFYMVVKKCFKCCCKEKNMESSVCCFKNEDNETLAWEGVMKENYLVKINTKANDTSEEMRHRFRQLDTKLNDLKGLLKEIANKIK

EC50 [nM]	Compound
1000 to 35000	Cc1ccc(OCCC2CCN(C)CC2)c(Cc2ccccc2C#N)c1 [compound 128, 2-(5-methyl-2-(2-(1-methylpiperidin-4-yl)ethoxy)benzyl)benzonitrile]
1000 to 35000	CN1CCN(CCOc2ccccc2Cc2ccccc2)CC1 [compound 93, 1-(2-(2-benzylphenoxy)ethyl)-4-methylpiperazine hydrochloride]
50 to 300	Cc1cc(C)c(OCCN2CCN(C)CC2)c(Cc2ccccc2C#N)c1 [compound 117, 2-(3,5-dimethyl-2-(2-(4-methylpiperazin-1-yl)ethoxy)benzyl)benzonitrile]
300 to 1000	Cc1cc(C)c(N(C)CCN2CCOCC2)c(Cc2c(F)cccc2F)c1 [compound 111, 2-(2,6-difluorobenzyl)-N,4,6-trimethyl-N-(2-morpholinoethyl)aniline]
1000 to 35000	Cc1cc(C)c(OCCN2CCN(C)CC2)c(Cc2cccc(Br)c2)c1 [compound 58, 1-(2-(2-(3-bromobenzyl)-4,6-dimethylphenoxy)ethyl)-4-methylpiperazine]
1000 to 35000	CC1=C(OCCN2CCN(C)CC2)/C(=C/c2ccccc2)CC(C)C1 (stereo not shown) [compound 43, (E)-1-(2-((6-benzylidene-2,4-dimethylcyclohex-1-en-1-yl)oxy)ethyl)-4-methylpiperazine]
300 to 1000	Cc1cc(C)c(OCCN2CCN(C)CC2)c(Cc2ccccc2)c1 [compound 70, 1-(2-(2-benzyl-4,6-dimethylphenoxy)ethyl)-4-methylpiperazine]
300 to 1000	Cc1cc(C)c(OC(C)CN2CCOCC2)c(Cc2c(F)cccc2F)c1 (stereo not shown) [compound 150, 4-(2-(2-(2,6-difluorobenzyl)-4,6-dimethylphenoxy)propyl)morpholine]
1000 to 35000	Cc1cccc(Cc2cc(C)ccc2OCCN2CCN(C)CC2)c1 [compound 104, 1-methyl-4-(2-(4-methyl-2-(3-methylbenzyl)phenoxy)ethyl)piperazine]
300 to 1000	Cc1cc(C)c(OCCN2CCOCC2)c(Cc2c(Cl)cccc2C#N)c1 [compound 142, 3-chloro-2-(3,5-dimethyl-2-(2-morpholinoethoxy)benzyl)benzonitrile]
1000 to 35000	Cc1cc(C)c(OCCN2CCN(C)CC2)c(Cc2ccccn2)c1 [compound 63, 1-(2-(2,4-dimethyl-6-(pyridin-2-ylmethyl)phenoxy)ethyl)-4-methylpiperazine]
300 to 1000	Cc1cc(C)c(OCCN2CCOCC2)c(Cc2ccc(F)cc2F)c1 [compound 146, 4-(2-(2-(2,4-difluorobenzyl)-4,6-dimethylphenoxy)ethyl)morpholine]
1000 to 35000	Cc1cc(C)c(OCCN2CCOCC2)c(Cc2ccccc2N)c1 [compound 121, 2-(3,5-dimethyl-2-(2-morpholinoethoxy)benzyl)aniline]
50 to 300	Cc1ccc(OCCN2CCN(C)CC2)c(Cc2ccccc2C#N)c1 [compound 129, 2-(5-methyl-2-(2-(4-methylpiperazin-1-yl)ethoxy)benzyl)benzonitrile]
1000 to 35000	Cc1ccc(OCCN2CCNCC2)c(Cc2ccccc2)c1 [compound 88, 1-(2-(2-benzyl-4-methylphenoxy)ethyl)piperazine]
1000 to 35000	Cc1ccc(OCCN2CCN(C)CC2)c(CC(C)C)c1 [compound 94, 1-(2-(2-isobutyl-4-methylphenoxy)ethyl)-4-methylpiperazine]
300 to 1000	Cc1cc(C)c(N(C)CCN2CCOCC2)c(Cc2ccccc2F)c1 [compound 113, 2-(2-fluorobenzyl)-N,4,6-trimethyl-N-(2-morpholinoethyl)aniline]
1000 to 35000	Cc1ccc(OCCN2CCN(C)CC2)c(Cc2ccco2)c1 [compound 61, 1-(2-(2-(furan-2-ylmethyl)-4-methylphenoxy)ethyl)-4-methylpiperazine]
50 to 300	Cc1ccc(N(C)CCN2CCOCC2)c(Cc2ccccc2F)c1 [compound 114, 2-(2-fluorobenzyl)-N,4-dimethyl-N-(2-morpholinoethyl)aniline]
< 50	Cc1cc(C)c(N(C)CCN2CCOCC2)c(Cc2ccccc2C#N)c1 [compound 126, 2-(3,5-dimethyl-2-(methyl(2-morpholinoethyl)amino)benzyl)benzonitrile]
1000 to 35000	Cc1cc(C)c(OCCN2CCN(C)CC2)cc1Cc1ccccc1C#N [compound 109, 2-(2,4-dimethyl-5-(2-(4-methylpiperazin-1-yl)ethoxy)benzyl)benzonitrile]
1000 to 35000	Cc1cc(C)c(OCCN2CCN(C)CC2)c(Cc2cccnc2)c1 [compound 64, 1-(2-(2,4-dimethyl-6-(pyridin-3-ylmethyl)phenoxy)ethyl)-4-methylpiperazine]

EC50 [nM]	Compound
50 to 300	Cc1cc(C)c(OCCN2CCOCC2)c(Cc2ccccc2Cl)c1 [compound 152, 4-(2-(2-(2-chlorobenzyl)-4,6-dimethylphenoxy)ethyl)morpholine]
1000 to 35000	COc1cccc(OCCN2CCN(C)CC2)c1Cc1ccccc1 [compound 67, 1-(2-(2-benzyl-3-methoxyphenoxy)ethyl)-4-methylpiperazine]
1000 to 35000	Cc1ccc(OCCN2CCN(C)CC2)c(Cc2ccc(Cl)s2)c1 [compound 53, 1-(2-(2-((5-chlorothiophen-2-yl)methyl)-4-methylphenoxy)ethyl)-4-methylpiperazine]
50 to 300	Cc1ccc(OCCN2CCOCC2)c(/C=C2\CCCCC2=O)c1 [compound 47, (E)-2-(5-methyl-2-(2-morpholinoethoxy)benzylidene)cyclohexan-1-one]
1000 to 35000	CC1CCC(OCCN2CCN(C)CC2)C(Cc2ccccc2)C1 (stereo not shown) [compound 51, 1-(2-((2-benzyl-4-methylcyclohexyl)oxy)ethyl)-4-methylpiperazine]
1000 to 35000	Cc1ccc(OCCCN2CCN(C)CC2)c(Cc2ccccc2)c1 [compound 99, 1-(3-(2-benzyl-4-methylphenoxy)propyl)-4-methylpiperazine hydrochloride]
1000 to 35000	Cc1cc(C)c(OCCN2CCOCC2)c(Cc2cc(F)c(F)cc2F)c1 [compound 156, 4-(2-(2,4-dimethyl-6-(2,4,5-trifluorobenzyl)phenoxy)ethyl)morpholine]
300 to 1000	C=C(c1ccccc1)c1cc(C)ccc1OCCN1CCN(C)CC1 [compound 102, 1-methyl-4-(2-(4-methyl-2-(1-phenylvinyl)phenoxy)ethyl)piperazine]
50 to 300	Cc1cc(C)c(OCCN2CCOCC2)c(Cc2ccccc2CC#N)c1 [compound 108, 2-(2-(3,5-dimethyl-2-(2-morpholinoethoxy)benzyl)phenyl)acetonitrile]
1000 to 35000	COC(=O)c1ccc(OCCN2CCN(C)CC2)c(Cc2ccccc2)c1 [compound 165, methyl 3-benzyl-4-(2-(4-methylpiperazin-1-yl)ethoxy)benzoate]
300 to 1000	Cc1cc(C)c(OCCN2CCOCC2)c(C(C)c2ccccc2F)c1 (stereo not shown) [compound 144, 4-(2-(2-(1-(2-fluorophenyl)ethyl)-4,6-dimethylphenoxy)ethyl)morpholine]
50 to 300	Cc1ccc(CCCN2CCN(C)CC2)c(Oc2ccccc2C#N)c1 [compound 133, 2-(5-methyl-2-(3-(4-methylpiperazin-1-yl)propyl)phenoxy)benzonitrile]
300 to 1000	C=C(c1ccccc1F)c1cc(C)cc(C)c1OCCN1CCOCC1 [compound 145, 4-(2-(2-(1-(2-fluorophenyl)vinyl)-4,6-dimethylphenoxy)ethyl)morpholine]
1000 to 35000	Cc1cccc(Cc2ccccc2)c1OCCN1CCN(C)CC1 [compound 92, 1-(2-(2-benzyl-6-methylphenoxy)ethyl)-4-methylpiperazine]
1000 to 35000	CCOC(=O)c1ccc(Cc2cc(C)cc(C)c2OCCN2CCN(C)CC2)cc1 [compound 164, ethyl 4-(3,5-dimethyl-2-(2-(4-methylpiperazin-1-yl)ethoxy)benzyl)benzoate dihydrochloride]
300 to 1000	CN1CCN(CCOc2ccc(Cl)cc2Cc2ccccc2)CC1 [compound 73, 1-(2-(2-benzyl-4-chlorophenoxy)ethyl)-4-methylpiperazine hydrochloride]
50 to 300	Cc1cc(C)c(OC(C)CN2CCOCC2)c(Cc2ccccc2C#N)c1 (stereo not shown) [compound 49, 2-(3,5-dimethyl-2-((1-morpholinopropan-2-yl)oxy)benzyl)benzonitrile]
< 50	Cc1cc(C)c(CCCN2CCOCC2)c(Oc2ccccc2F)c1 [compound 162, 4-(3-(2-(2-fluorophenoxy)-4,6-dimethylphenyl)propyl)morpholine]
1000 to 35000	Cc1ccc(NCCN2CCN(C)CC2)c(Cc2ccccc2)c1 [compound 135, 2-benzyl-4-methyl-N-(2-(4-methylpiperazin-1-yl)ethyl)aniline]
1000 to 35000	Cc1cccc(OCCN2CCN(C)CC2)c1Cc1ccccc1 [compound 68, 1-(2-(2-benzyl-3-methylphenoxy)ethyl)-4-methylpiperazine]
1000 to 35000	Cc1ccc(OCCN2CCN(C)CC2)c(C(=O)c2ccccc2)c1 [compound 42, (5-methyl-2-(2-(4-methylpiperazin-1-yl)ethoxy)phenyl)(phenyl)methanone]
